The source of these data is article PMC6155852, “Oral Administration of the Japanese Traditional Medicine Keishibukuryogan-ka-yokuinin Decreases Reactive Oxygen Metabolites in Rat Plasma: Identification of Chemical Constituents Contributing to Antioxidant Activity” (Molecules : A Journal of Synthetic Chemistry and Natural …, 2017).

The term Cmax denotes the highest concentration seen after dosing. One may read the Tmax as the time at which the peak concentration occurs. For orientation: IC50 means the point on the concentration scale where inhibition reaches its midpoint. Read a high IC50 as lower potency.

Data set [1] is described as follows: Plasma pharmacokinetics of KBGY constituents in rats after single oral administration of KBGY. Type of data set: in vivo, rat. As for the experimental part: KBGY prepared in water was administered orally to 16 h fasted rats at a dose of 2 g/10 mL/kg (n = 3). […] Plasma was obtained by centrifugation at 1700× g for 15 min at 4 °C and stored at −80 °C until analysis.
For quantification of the dicarboxylic acid, 50 µL of standard solution, 100 µL of acetic acid (2%, v/v), and 650 µL of ethyl acetate were added to 200 µL of plasma samples, followed by mixing and centrifugation (7000× g, 5 min). The supernatants were collected and dried with a centrifugal evaporator and concentration system (CC-105; TOMY SEIKO Co., Tokyo, Japan). The residue was dissolved with 100 µL acetonitrile and 50 µL BF3/butanol solution; the dissolved solution was incubated for 1 h at 60 °C. The reaction was terminated by the addition of 50 µL of water and hexane, 150 µL of a saturated solution of sodium chloride, and 400 µL of hexane. The solution was vortexed for 2 min, and the supernatant was obtained by centrifugation (7000× g, 5 min). Liquid–liquid extraction was repeated twice. The corrected supernatant was dried with the centrifugal evaporator and concentration system. The dried residue was dissolved in 100 µL of acetonitrile containing 1 µg/mL of o-terphenyl (Tokyo Chemical Ind. Co.) as an internal standard (IS). Five microliters of the solution was then injected into the GC/MS system.
For quantification of volatile organic compounds (cinnamaldehyde, methyl cinnamate, 2-methoxycinnamaldehyde, mandelonitrile, salicylaldehyde, eugenol, cinnamyl alcohol, and 3-phenylpropyl acetate), 25 µL of standard solution, 25 µL of 2 µg/mL of 1,4-dibromobenzene (Tokyo Chemical Ind. Co.) as IS, and 500 µL of acetonitrile were added to 200 µL of plasma samples, followed by mixing and centrifugation (7000× g, 5 min). Five microliters of the supernatant was then injected into the GC/MS system.
For quantification of other compounds, 25 µL of standard solution, 25 µL of 2 ng/mL of atropine sulfate monohydrate (Wako Pure Chemical Ind.) or niflumic acid (Sigma-Aldrich) as IS, and 750 µL of methanol were added to 200 µL of plasma samples, followed by mixing and centrifugation (7000× g, 5 min). The supernatant was obtained and dried with the centrifugal evaporator and concentration system after 150 µL of propylene glycol (1%, v/v) was added to the supernatant. The dried residue was then dissolved in 60 μL of the HPLC mobile phase for each analytical method, and a 10 or 20 μL portion was injected into the LC/MS/MS system.
Plasma pharmacokinetic data were analyzed by noncompartmental modeling using Phoenix WinNonlin (version 6.3, Certara L.P., St. Louis, MO, USA) to determine various pharmacokinetic constants, including the maximum concentration (Cmax), time to maximum concentration (tmax), apparent elimination half-life (t1/2), and area under the plasma concentration-time curve from zero to last observation time (AUC0–last). The t1/2 was divided by loge^2/ke, where ke was the terminal elimination (at least three data points on the descending linear limb) rate constant.

Data set [2] is described as follows: Lipid hydroperoxide (LPO) generation assay (linoleic acid, Fenton reaction). It is filed as biochemical. As for the experimental part:
Antioxidant assays using linoleic acid with a purity of 98.0% (Wako Pure Chemical Ind.) were performed using a described protocol with modifications. Briefly, 20 μL of 1% linoleic acid in methanol, 20 μL of 20 mmol/L ferrous chloride in water, 20 μL of test sample in DMSO, and 150 μL of a mixed solution (1:1) of methanol and 20 mmol/L phosphate buffer (pH 7.0) were added to 96-well polypropylene plates. After incubation at room temperature in the dark for 1 h, 10 μL of the reaction products were transferred to 200 μL of a methanol solution containing 39 mmol/L ammonium thiocyanate, 0.2 mmol/L ferrous chloride, and 0.01 mol/L hydrochloride. After incubation for 15 min, absorbance at 500 nm was measured using a microplate reader (Multiskan GO, Thermo Fisher Scientific Inc., Waltham, MA, USA). The concentration of lipid hydroperoxide (LPO) products was calculated conveniently using standard curves of serially-diluted linolein hydroperoxides (Cayman Chemical). The percentage of control was calculated using the following formula; (A − B)/(C − B) × 100, with A = test sample, B = linoleic acid alone, and C = vehicle control. Ascorbic acid was used as a reference agent.

Data set [3] is described as follows: ROS scavenging assay (hydrogen peroxide-dependent oxidation). It is filed as biochemical. As to conditions: for Antioxidant Activity (% of Control) ROS Scavenge: C.I. = complete inhibition; for IC50: concentration-dependency, Figure 4. As for the experimental part: Hydrogen peroxide-dependent oxidation tests were performed using Oxiselect™ In Vitro ROS/RNS Assay kits (Cellbiolab Inc., San Diego, CA, USA) according to the manufacturer’s protocol. Briefly, a test sample was mixed with hydrogen peroxide (final concentration: 2.5 μmol/L) and incubated for 5 min. A fluorescent reaction was started by the addition of a fluorescent probe (dichrolodihydrofluorescin-DiOxyQ) at room temperature. After incubation for 15 min, relative fluorescent units (RFUs) were measured at […] using a fluorescent plate reader (Infinite M200; Tecan Trading AG, Männedorf, Switzerland). The percentage of control was calculated using the following formula; (A − B)/(C − B) × 100, with A = test sample, B = fluorescent probe alone, and C = vehicle control. (+)-Ascorbic acid was used as a reference agent.

Setting [4] is: 10 μmol/L, more than 100% = no activity.
[5] abbreviates: in vivo, rat plasma, single oral KBGY 2 g/kg, read-out: tmax.
Where [6] appears, read: rat plasma, single oral KBGY 2 g/kg.
The mark [7] stands for this setting: in vivo, rat plasma, single oral KBGY 2 g/kg, read-out: AUC0–last.
[8] abbreviates: in vivo, rat plasma, single oral KBGY 2 g/kg, read-out: Cmax.

SMILES strings stand for the structures. Where “and” joins values, the source holds several entries; their conditions need not be identical. Identical values can stand only once. Like-named read-outs stand apart in the source and are kept apart here.

`O=C1OC[C@H](Cc2cccc(O)c2)[C@H]1Cc1cccc(O)c1` [Enterolactone] yielded an AUC(0-t) in data set [1] (rat, in vivo, po, 2 g/kg) of 1.33 ng·h/mL. Besides, the maximum concentration (Cmax) in data set [1] (rat, in vivo, po, 2 g/kg) is 1.07 ng/mL and 4 nM. Moreover, in data set [1] (rat, in vivo, po, 2 g/kg), the Tmax amounted to 4 h. The “Antioxidant Activity (% of Control) LPO Generation” value in data set [2] (1 μmol/L) is 102.1± 2.7 % of Control; in data set [2] (setting [4]), 86.1 ± 0.9 % of Control. The “Antioxidant Activity (% of Control) ROS Scavenge” value in data set [3] (1 μmol/L) is listed as 81.6 ± 2.9 % of Control; in data set [3] (setting [4]), “C.I”. In data set [3] (10 μmol/L), the anti-ROS activity entry is given as “strong anti-ROS activity”.
For `O=C(O)c1cc(O)c(O)c(O)c1` [Gallic acid], the Tmax in data set [1] (setting [5]) came out at 0.5 h. Further, in data set [1] (rat, in vivo, po, 2 g/kg), the AUC(0-t) stood at 172 ng·h/mL; the Cmax is 84.9 ng/mL and 499 nM; the half-life was 0.772 h. For the same molecule, in data set [2] (setting [4]), the “Antioxidant Activity (% of Control) LPO Generation” value is given as 74.0 ± 2.5 % of Control. The “Antioxidant Activity (% of Control) LPO Generation” value in data set [2] (10 μmol/L, more than 100% = no activity, listed as gallic acid) is “less than 80 % of Control”. For the same molecule, the “Inhibition of LPO generation” value in data set [2] (3 and 10 μmol/L, Figure 4) is listed as “significantly inhibited LPO generation”. Also, in data set [3] (0.313 μmol/L), the “ROS scavenging activity (% control)” value stood at 71.1 % control. Moreover, in data set [3] (10 μmol/L), the anti-ROS activity entry is reported as “strong anti-ROS activity”. For the same molecule, the “Antioxidant Activity (% of Control) ROS Scavenge” value in data set [3] (setting [4]) is on record as 14.5 ± 0.7 % of Control. The IC50 in data set [3] stood at 954 nM.
For `COc1cc(C[C@H]2CO[C@H](c3ccc(O)c(OC)c3)[C@H]2CO)ccc1O` [Lariciresinol], the AUC(0-t) in data set [1] (rat, in vivo, po, 2 g/kg) was determined as 9.84 ng·h/mL. In addition, the highest concentration (Cmax) in data set [1] (rat, in vivo, po, 2 g/kg) is 1.68 ng/mL and 5 nM. Moreover, the Tmax in data set [1] (rat, in vivo, po, 2 g/kg) came out at 4 h. The “Antioxidant Activity (% of Control) LPO Generation” value in data set [2] (1 μmol/L) is listed as 98.3 ± 1.4 % of Control; in data set [2] (setting [4]), 79.5 ± 1.9 % of Control; in data set [2] (10 μmol/L, more than 100% = no activity, listed as lariciresinol) it was “less than 80 % of Control”. Also, the “Antioxidant Activity (% of Control) ROS Scavenge” value in data set [3] (1 μmol/L) and in data set [3] (setting [4]) was “C.I” each time. Besides, the anti-ROS activity entry in data set [3] (10 μmol/L) is “strong anti-ROS activity”. The same molecule showed a concentration for half-maximal inhibition (IC50) in data set [3] of 561 nM.
Turning to `COc1cc([C@@H]2c3c(cc(OC)c(O)c3OC)C[C@H](CO)[C@H]2CO)cc(OC)c1O` [Lyoniresinol], the “AUC0–last” value in data set [1] (setting [6]) came to 0.3 ng·h/mL. For the same molecule, the time to peak (Tmax) in data set [1] (setting [6]) is given as 1 h. Further, in data set [1] (setting [6]), the t1/2 worked out at 11.4 h. For the same molecule, the “Antioxidant Activity (% of Control) LPO Generation” value is listed as 96.8 ± 2.9 % of Control in data set [2] (1 μmol/L); 57.4 ± 1.6 % of Control in data set [2] (setting [4]); “less than 80 % of Control” in data set [2] (10 μmol/L, more than 100% = no activity, listed as lyoniresinol). The figures for the “Antioxidant Activity (% of Control) ROS Scavenge” value in data set [3] (1 μmol/L) and in data set [3] (setting [4]) were 89.3 ± 2.0 % of Control and “C.I”, respectively. Further, in data set [3] (10 μmol/L), the anti-ROS activity entry is given as “strong anti-ROS activity”.
In the case of `N#CC(O)c1ccccc1` (stereo not shown) [Mandelonitrile], in data set [1] (setting [7]), the AUC(0-t) amounted to 251 ng·h/mL. The peak concentration (Cmax) in data set [1] (setting [8]) was 165 ng/mL and 1.24 µM. Further, the Tmax in data set [1] (setting [5]) stood at 1 h. Besides, the “Antioxidant Activity (% of Control) LPO Generation” value in data set [2] (setting [4]) is recorded as 104.6 ± 1.2 % of Control. In data set [3] (setting [4]), the “Antioxidant Activity (% of Control) ROS Scavenge” value is given as 99.7 ± 0.6 % of Control.
Take `C[C@@]12C[C@@]3(O)O[C@@H](O1)[C@]1(COC(=O)c4ccccc4)[C@H]3C[C@@]12O[C@@H]1O[C@H](CO)[C@@H](O)[C@H](O)[C@H]1O` [Paeoniflorin]: the Tmax in data set [1] (setting [6]) is listed as 0.5 h. Besides, in data set [1] (rat, in vivo, po, 2 g/kg), the AUC(0-t) was 299 ng·h/mL; the maximum concentration (Cmax) is 80.2 ng/mL and 167 nM; the half-life was 2.72 h. The “Antioxidant Activity (% of Control) LPO Generation” value in data set [2] (setting [4]) was 92.7 ± 0.9 % of Control. In addition, in data set [3] (setting [4]), the “Antioxidant Activity (% of Control) ROS Scavenge” value was 100.2 ± 1.4 % of Control.
For `N#C[C@H](O[C@@H]1O[C@H](CO)[C@@H](O)[C@H](O)[C@H]1O)c1ccccc1` [Prunasin], the AUC(0-t) in data set [1] (setting [7]) is 3700 ng·h/mL. Besides, the peak concentration (Cmax) in data set [1] (setting [8]) is 1450 ng/mL and 4.91 µM. For the same molecule, the half-life in data set [1] (in vivo, rat plasma, single oral KBGY 2 g/kg, read-out: t1/2 (converted)) is 1.16 h. In addition, the Tmax in data set [1] (setting [5]) stood at 1 h. Further, the “Antioxidant Activity (% of Control) LPO Generation” value in data set [2] (setting [4]) is reported as 97.9 ± 3.3 % of Control. In addition, the “Antioxidant Activity (% of Control) ROS Scavenge” value in data set [3] (setting [4]) was 102.2 ± 1.1 % of Control.
Take `C=C(CC[C@@H](C(=O)O)[C@H]1[C@H](O)C[C@@]2(C)C3=C(CC[C@]12C)[C@@]1(C)CC[C@H](O)C(C)(C)[C@@H]1CC3)C(C)C` [Tumulosic acid]: in data set [1] (rat, in vivo, po, 2 g/kg), the AUC(0-t) was found to be 700 ng·h/mL; the Cmax was 200 ng/mL and 411 nM; the Tmax was 0.5 h; the half-life is 4.66 h. Besides, the “Antioxidant Activity (% of Control) LPO Generation” value in data set [2] (setting [4]) is on record as 99.4 ± 2.3 % of Control. Also, the “Antioxidant Activity (% of Control) ROS Scavenge” value in data set [3] (setting [4]) is on record as 105.9 ± 2.1 % of Control.
